# Measurements as given in patent publication US6651382B1, “Method for preventing the release of gramineous plant pollens” (National Agricultural Research Organization, priority 1999, dated 2003).
# Test system: flowering barley line derived from a barley line "Satsuki-Nijo"
# Assay: Flowering inhibition test on harvested unflowered barley ears treated with reagent solution
# Format: in vivo
# Method: A flowering barley line derived from a barley line “Satsuki-Nijo” was conventionally cultivated in the fields. At the earing time, unflowered ears immediately after earing were harvested. Each group of three ears was then treated with 10 cc reagent solution containing 1-100 ppm methyl jasmonate as a jasmonic acid derivative in an artificial climate chamber under the following conditions: in the light having a brightness of 120 […] for 14 hours at 25° C.; and in the dark for 10 hours at 15° C.
# Flowered ears were transferred to a culture medium for cuttings and cultivated for about 20 days. The number of anthers remaining in a glumaceous flower after self-pollination was measured and used as a control.
# [1] = Table 2 (repeated test), reagent concentration 1 ppm
# [2] = Table 2 (repeated test), reagent concentration 10 ppm
# [3] = Table 2 (repeated test), reagent concentration 100 ppm
smiles,measurement,setting,value
"CC/C=C\CC1C(=O)CCC1CC(=O)OC (stereo not drawn) [Methyl jasmonate, methyl jasmonate]",Number of remaining anthers per one glumaceous flower,"Table 1, reagent concentration 1 ppm, after self-pollination",0.7
same,Number of flowered ears on the 6th day,"Table 1, reagent concentration 1 ppm, group of three ears, 10 cc solution",3
same,Number of remaining anthers per one glumaceous flower,"Table 1, reagent concentration 10 ppm, after self-pollination",1.7
same,Number of remaining anthers per one glumaceous flower,"Table 1, reagent concentration 10 ppm, after self-pollination, listed as methyl jasmonate",more anthers than non-treated ears
same,Number of flowered ears on the 6th day,"Table 1, reagent concentration 10 ppm, group of three ears, 10 cc solution",3
same,Number of remaining anthers per one glumaceous flower,"Table 1, reagent concentration 100 ppm, after self-pollination",2.1
same,Number of remaining anthers per one glumaceous flower,"Table 1, reagent concentration 100 ppm, after self-pollination, listed as methyl jasmonate",many more remaining anthers
same,Number of flowered ears on the 6th day,"Table 1, reagent concentration 100 ppm, group of three ears, 10 cc solution",0
same,Number of flowered ears on the 6th day,"Table 1, reagent concentration 100 ppm, group of three ears, 10 cc solution, listed as methyl jasmonate",no flowering was observed
same,Number of flowered ears on the 6th day,[1],3
same,Number of remaining anthers per one glumaceous flower,[1],1.1
same,Number of flowered ears on the 6th day,[2],3
same,Number of remaining anthers per one glumaceous flower,[2],1.7
same,Number of flowered ears on the 6th day,[3],0
same,Number of remaining anthers per one glumaceous flower,[3],2.6
